# Source: the supplement of paper PMC10307832
# Assays:
# Assay in all cases: relative viability (nuclei count vs DMSO), 5 days (fraction); higher = more cells survive
# BEN = tested on: BEN
# Procedure, shortened: (§1)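 Nuclei were stained with Hoechst during a one-step fixation (final 0.05% Triton X-100, 1% formaldehyde, 1 ug/ml Hoechst) carried out 5 days after dosing, then counted on 4× images. The cells, lung cancer lines in 1536-well plates, had been dosed by pin tool the day after seeding with one drug alone or a fixed anchor-drug dose plus five library-drug doses (not always all listed) in √10 steps. Relative viability is the nuclei count in treated wells divided by that in vehicle wells, and each value is the median of duplicate plates.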
# EMC-BAC-2 = tested on: EMC-BAC-2
# Procedure, shortened: as §1
# HCC-15 = tested on: HCC-15
# Procedure, shortened: as §1
# HCC-44 = tested on: HCC-44
# Procedure, shortened: as §1
# HOP-62 = tested on: HOP-62
# Procedure, shortened: as §1
# LC-2-ad = tested on: LC-2-ad
# Procedure, shortened: as §1
# LU99A = tested on: LU99A
# Procedure, shortened: as §1
# NCI-H1395 = tested on: NCI-H1395
# Procedure, shortened: as §1
# NCI-H1437 = tested on: NCI-H1437
# Procedure, shortened: as §1
# NCI-H1563 = tested on: NCI-H1563
# Procedure, shortened: as §1
# NCI-H1734 = tested on: NCI-H1734
# Procedure, shortened: as §1
# NCI-H1755 = tested on: NCI-H1755
# Procedure, shortened: as §1
# NCI-H1915 = tested on: NCI-H1915
# Procedure, shortened: as §1
# NCI-H2023 = tested on: NCI-H2023
# Procedure, shortened: as §1
# NCI-H2126 = tested on: NCI-H2126
# Procedure, shortened: as §1
# NCI-H2170 = tested on: NCI-H2170
# Procedure, shortened: as §1
# NCI-H3122 = tested on: NCI-H3122
# Procedure, shortened: as §1
# NCI-H358 = tested on: NCI-H358
# Procedure, shortened: as §1
# NCI-H650 = tested on: NCI-H650
# Procedure, shortened: as §1
# NCI-H727 = tested on: NCI-H727
# Procedure, shortened: as §1
# SW 1573 = tested on: SW 1573
# Procedure, shortened: as §1
smiles,measurement,setting,value
Cc1csc(=NC2CCCCC2)n1/N=C/c1ccc(O)c(O)c1O [MIM1] + Cc1nc(NC(=O)N2CCC[C@H]2C(N)=O)sc1-c1ccnc(C(C)(C)C(F)(F)F)c1 [Alpelisib] (partner 2 µM),relative viability,BEN; first compound 0.2 µM,1.13
same,relative viability,BEN; first compound 0.6325 µM,0.99
same,relative viability,BEN; first compound 2 µM,1.21
same,relative viability,BEN; first compound 6.325 µM,1.01
same,relative viability,BEN; first compound 20 µM,0.445
same,relative viability,EMC-BAC-2; first compound 0.2 µM,0.718
same,relative viability,EMC-BAC-2; first compound 0.6325 µM,0.771
same,relative viability,EMC-BAC-2; first compound 2 µM,0.745
same,relative viability,EMC-BAC-2; first compound 6.325 µM,0.682
same,relative viability,EMC-BAC-2; first compound 20 µM,0.404
same,relative viability,HCC-15; first compound 0.2 µM,0.989
same,relative viability,HCC-15; first compound 0.6325 µM,0.838
same,relative viability,HCC-15; first compound 2 µM,0.967
same,relative viability,HCC-15; first compound 6.325 µM,0.481
same,relative viability,HCC-15; first compound 20 µM,0.125
same,relative viability,HCC-44; first compound 0.2 µM,0.835
same,relative viability,HCC-44; first compound 0.6325 µM,0.838
same,relative viability,HCC-44; first compound 2 µM,0.577
same,relative viability,HCC-44; first compound 6.325 µM,0.498
same,relative viability,HCC-44; first compound 20 µM,0.137
same,relative viability,HOP-62; first compound 0.2 µM,0.785
same,relative viability,HOP-62; first compound 0.6325 µM,0.958
same,relative viability,HOP-62; first compound 2 µM,0.608
same,relative viability,HOP-62; first compound 6.325 µM,1.03
same,relative viability,HOP-62; first compound 20 µM,0.24
same,relative viability,LC-2-ad; first compound 0.2 µM,0.867
same,relative viability,LC-2-ad; first compound 0.6325 µM,0.905
same,relative viability,LC-2-ad; first compound 2 µM,0.946
same,relative viability,LC-2-ad; first compound 6.325 µM,0.527
same,relative viability,LC-2-ad; first compound 20 µM,0.116
same,relative viability,LU99A; first compound 0.2 µM,0.488
same,relative viability,LU99A; first compound 0.6325 µM,0.495
same,relative viability,LU99A; first compound 2 µM,0.459
same,relative viability,LU99A; first compound 6.325 µM,0.487
same,relative viability,LU99A; first compound 20 µM,0.327
same,relative viability,NCI-H1395; first compound 0.2 µM,0.947
same,relative viability,NCI-H1395; first compound 0.6325 µM,1.06
same,relative viability,NCI-H1395; first compound 2 µM,0.911
same,relative viability,NCI-H1395; first compound 6.325 µM,0.537
same,relative viability,NCI-H1395; first compound 20 µM,0.407
same,relative viability,NCI-H1437; first compound 0.2 µM,0.843
same,relative viability,NCI-H1437; first compound 0.6325 µM,0.935
same,relative viability,NCI-H1437; first compound 2 µM,0.959
same,relative viability,NCI-H1437; first compound 6.325 µM,0.592
same,relative viability,NCI-H1437; first compound 20 µM,0.289
same,relative viability,NCI-H1563; first compound 0.2 µM,0.95
same,relative viability,NCI-H1563; first compound 0.6325 µM,1.04
same,relative viability,NCI-H1563; first compound 2 µM,0.873
same,relative viability,NCI-H1563; first compound 6.325 µM,0.802
same,relative viability,NCI-H1563; first compound 20 µM,0.657
same,relative viability,NCI-H1734; first compound 0.2 µM,0.738
same,relative viability,NCI-H1734; first compound 0.6325 µM,0.655
same,relative viability,NCI-H1734; first compound 2 µM,0.696
same,relative viability,NCI-H1734; first compound 6.325 µM,0.655
same,relative viability,NCI-H1734; first compound 20 µM,0.38
same,relative viability,NCI-H1755; first compound 0.2 µM,0.93
same,relative viability,NCI-H1755; first compound 0.6325 µM,0.953
same,relative viability,NCI-H1755; first compound 2 µM,0.961
same,relative viability,NCI-H1755; first compound 6.325 µM,0.72
same,relative viability,NCI-H1755; first compound 20 µM,0.207
same,relative viability,NCI-H1915; first compound 0.2 µM,1.14
same,relative viability,NCI-H1915; first compound 0.6325 µM,1.04
same,relative viability,NCI-H1915; first compound 2 µM,1.02
same,relative viability,NCI-H1915; first compound 6.325 µM,0.773
same,relative viability,NCI-H1915; first compound 20 µM,0.277
same,relative viability,NCI-H2023; first compound 0.2 µM,0.564
same,relative viability,NCI-H2023; first compound 0.6325 µM,0.594
same,relative viability,NCI-H2023; first compound 2 µM,0.526
same,relative viability,NCI-H2023; first compound 6.325 µM,0.368
same,relative viability,NCI-H2023; first compound 20 µM,0.328
same,relative viability,NCI-H2126; first compound 0.2 µM,0.708
same,relative viability,NCI-H2126; first compound 0.6325 µM,0.756
same,relative viability,NCI-H2126; first compound 2 µM,0.776
same,relative viability,NCI-H2126; first compound 6.325 µM,0.758
same,relative viability,NCI-H2126; first compound 20 µM,0.727
same,relative viability,NCI-H2170; first compound 0.2 µM,0.769
same,relative viability,NCI-H2170; first compound 0.6325 µM,0.814
same,relative viability,NCI-H2170; first compound 2 µM,0.812
same,relative viability,NCI-H2170; first compound 6.325 µM,0.651
same,relative viability,NCI-H2170; first compound 20 µM,0.337
same,relative viability,NCI-H3122; first compound 0.2 µM,0.825
same,relative viability,NCI-H3122; first compound 0.6325 µM,0.833
same,relative viability,NCI-H3122; first compound 2 µM,0.881
same,relative viability,NCI-H3122; first compound 6.325 µM,0.644
same,relative viability,NCI-H3122; first compound 20 µM,0.249
same,relative viability,NCI-H358; first compound 0.2 µM,0.829
same,relative viability,NCI-H358; first compound 0.6325 µM,0.881
same,relative viability,NCI-H358; first compound 2 µM,0.721
same,relative viability,NCI-H358; first compound 6.325 µM,0.383
same,relative viability,NCI-H358; first compound 20 µM,0.274
same,relative viability,NCI-H650; first compound 0.2 µM,1.19
same,relative viability,NCI-H650; first compound 0.6325 µM,1.1
same,relative viability,NCI-H650; first compound 2 µM,1.27
same,relative viability,NCI-H650; first compound 6.325 µM,1.04
same,relative viability,NCI-H650; first compound 20 µM,0.396
same,relative viability,NCI-H727; first compound 0.2 µM,0.595
same,relative viability,NCI-H727; first compound 0.6325 µM,0.614
same,relative viability,NCI-H727; first compound 2 µM,0.534
same,relative viability,NCI-H727; first compound 6.325 µM,0.482
same,relative viability,NCI-H727; first compound 20 µM,0.397
same,relative viability,SW 1573; first compound 0.2 µM,0.809
same,relative viability,SW 1573; first compound 0.6325 µM,0.758
same,relative viability,SW 1573; first compound 2 µM,0.808
same,relative viability,SW 1573; first compound 6.325 µM,0.639
same,relative viability,SW 1573; first compound 20 µM,0.618
